In BigSolDB 2.1:

Clc1ccc(COC(Cn2ccnc2)c2ccc(Cl)cc2Cl)cc1.O=[N+]([O-])O (centres undefined)
solubility (mole fraction)
Conditions	278.15 K	283.15 K	288.15 K	293.15 K	298.15 K	303.15 K	308.15 K	313.15 K	318.15 K
in 1,4-dioxane	–	–	0.000262	0.000317	0.000393	0.000482	0.000596	0.000729	0.000897
in ethanol	0.000526	0.000656	0.000832	0.00102	0.00125	0.00153	0.00189	0.00228	0.00275
in methanol	0.0015	0.00181	0.00221	0.00266	0.00328	0.00397	0.00479	0.00577	0.00687
in water	1.67e-05	2.05e-05	2.47e-05	2.93e-05	3.44e-05	3.98e-05	4.56e-05	5.16e-05	5.78e-05
